Data on 9 compounds can be found in PubChem BioAssay (NCI).

Common to all, as to assay: growth of human tumour cells (NCI), 48 h
Test [1] has as its system COLO 205 colon.
Test [2] has as its system HOP-92 NSCLC.
Test [3] has as its system M14 melanoma.
Test [4] has as its system NCI-H460 lung.
In test [5] the test system is SK-OV-3 ovarian.
The test system of test [6] is SNB-75 CNS.
The test system of test [7] is TK-10 renal.
In test [8] the test system is U251 CNS.
Test [9] deals with UACC-257 melanoma.
For test [10], the system named is UACC-62 melanoma.

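These data come from cells grown in 96-well plates and exposed to compound for 48 hours at five concentrations. GI50 marks 50% less growth. Definition used: TGI = concentration required for complete inhibition of growth.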

Regarding `COc1ccc(C(N)=O)cc1N=NN(C)C`, the TGI in test [1], in test [2], in test [3], in [4], in [5] and in [6] was over 100 µM throughout. For the same compound, the TGI in test [7], in [8], in [9] and in [10] was over 100 µM in each case.

Take `O=c1[nH]c(=O)n(C2OC(CO)C(O)C2O)c2c1CCCC2` (stereo not given): the TGI in test [1], in test [2], in test [3], in test [4], in test [5] and in test [6] was over 100 µM throughout. For the same compound, the TGI in test [7], in test [8], in test [9] and in test [10] was over 100 µM throughout.

For `Cn1c(=O)c(Oc2ccccc2F)cc2cnc(NC3CCOCC3)nc21`, the GI50 in [1] was over 25 µM; in [2], 1.25 µM; in test [3] it was over 25 µM; in test [4], over 25 µM; in test [5], over 25 µM; in test [6], over 19.8 µM. The GI50 in test [7], in test [8], in test [9] and in test [10] was over 25 µM each time. The TGI in test [1] was over 25 µM; in [2] it was 22.8 µM; in [3], over 25 µM; in test [4], over 25 µM; in test [5] it was over 25 µM; in test [6], over 25 µM. The TGI in [7], in test [8], in test [9] and in [10] was over 25 µM in each case.

As to `Cc1c(C(=O)NCCO)[n+](=O)c2cc(Cl)ccc2n1[O-]`, the TGI in test [1], in test [2], in [3], in test [4], in test [5] and in test [6] was over 100 µM in each case. Further, the TGI in test [7], in test [8], in [9] and in [10] was over 100 µM in each case.

Turning to `COC(=O)c1sc(C(=O)OC)c2c1CSC2`, the TGI in test [1] was over 100 µM; in [2] it was over 93.6 µM; in test [3], over 100 µM; in [4], over 100 µM; in test [5] it was over 100 µM; in test [6] it was 57.7 µM. Also, the TGI was over 100 µM in test [7], over 81 µM in test [8], over 100 µM in [9] and over 100 µM in test [10].

In the case of `COc1cc2c3c(n(CCCNCCN)c(=O)c2cc1OC)-c1cc2c(cc1C3=O)OCO2`, the GI50 in test [1] is over 100 µM; in test [2], 2.31 µM; in [3] it was 0.738 µM; in test [4], 1.24 µM; in [5], over 100 µM; in test [6], 6.34 µM. Also, the GI50 in [7] is 2.9 µM; in [8] it was 0.0484 µM; in [9], 1.95 µM; in test [10], 1.01 µM. The TGI in [1] is over 100 µM; in test [2] it was 15.6 µM; in [3], 5.26 µM; in test [4], over 49.9 µM; in test [5] it was over 100 µM; in test [6], 21.5 µM. Moreover, the TGI is 18.9 µM in [7], 0.533 µM in test [8], 14.1 µM in test [9] and 2.64 µM in [10].

With `N#Cc1cnc2cc(OC[C@@H](O)CO)c(NC(=O)CC3CSSC3)cc2c1Nc1ccc(OCc2cccc(F)c2)c(Cl)c1`, the GI50 is 0.813 µM in [1]; 0.919 µM in test [2]; 0.0828 µM in test [3]; 0.104 µM in [4]; 0.567 µM in [5]; 0.738 µM in test [6]. The GI50 in test [7] is 0.772 µM; in test [8] it was 0.777 µM; in test [9], 0.195 µM; in test [10], 0.38 µM. For the same compound, the TGI amounted to 1.63 µM in test [1]; 2.06 µM in test [2]; 0.175 µM in [3]; 0.261 µM in test [4]; 1.27 µM in test [5]; 1.58 µM in test [6]. Also, the TGI in test [7] stood at 1.51 µM; in test [8], 1.59 µM; in test [9] it was 0.829 µM; in test [10], 1.08 µM.

On to `CCN1C(=S)N(CC)C2C1NC(=S)N2/N=C/C=C/c1ccccc1` (stereo not given), for which the GI50 in [1] is 1.11 µM; in test [2] it was 4 µM; in [3], 0.879 µM; in test [4] it was 1.79 µM; in [5] it was 2.4 µM; in test [6] it was 1.09 µM. Besides, the GI50 was 7.65 µM in test [7], 2.31 µM in test [8], 3.68 µM in test [9] and 1.37 µM in test [10]. Further, the TGI was 4.4 µM in test [1]; 20.9 µM in test [2]; 12.9 µM in test [3]; 12.7 µM in test [4]; 14.7 µM in test [5]; 5.65 µM in [6]. Besides, the TGI in test [7] came out at 23.1 µM; in test [8], 13 µM; in [9], 19.5 µM; in test [10] it was 14.9 µM.

`Clc1ccc2[nH]cc(-c3nc(-c4c[nH]c5ncccc45)cs3)c2c1`: the GI50 in test [1] is 1.73 µM; in [2], 2.24 µM; in test [3], 3.2 µM; in test [4], 2.56 µM; in [5], 6.16 µM; in [6] it was 3.25 µM. In addition, the GI50 in test [7] is 4.71 µM; in test [8], 3.17 µM; in [9], 2.56 µM; in [10], 4 µM. Besides, the TGI came to 13.3 µM in [1]; 8.6 µM in [2]; 11.1 µM in test [3]; 9.15 µM in [4]; 39 µM in test [5]; 35.3 µM in test [6]. The TGI was found to be 38.1 µM in test [7], 13.2 µM in test [8], 6.78 µM in [9] and 16.5 µM in [10].
